From US5436254A, “Carbostyril derivatives” (Otsuka Pharmaceutical Company, Ltd., priority 1989, dated 1995) come the findings set out here.

Structures can show the parent of a compound that is named as a salt.

For the first test, the target named is V1 receptor (Rattus norvegicus, UniProt P30560). The test is described as follows: biochemical.
V1 receptor, sequence (P30560 whole entry): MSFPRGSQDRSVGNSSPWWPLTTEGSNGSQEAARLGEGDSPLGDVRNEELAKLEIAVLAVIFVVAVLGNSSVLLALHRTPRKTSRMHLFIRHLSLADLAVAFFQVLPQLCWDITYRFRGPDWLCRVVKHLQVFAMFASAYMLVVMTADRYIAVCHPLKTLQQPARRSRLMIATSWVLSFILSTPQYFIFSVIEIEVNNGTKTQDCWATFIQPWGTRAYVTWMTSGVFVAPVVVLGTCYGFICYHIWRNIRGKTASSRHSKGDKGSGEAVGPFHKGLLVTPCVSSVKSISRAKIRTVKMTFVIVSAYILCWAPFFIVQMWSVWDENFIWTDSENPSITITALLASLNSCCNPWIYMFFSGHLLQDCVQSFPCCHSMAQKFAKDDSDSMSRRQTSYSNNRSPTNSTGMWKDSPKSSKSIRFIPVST
Settings: not given
Format: binding.
`CS(=O)(=O)Oc1ccc(C(=O)N2CCC(N3C(=O)CCc4ccccc43)CC2)cc1` [Example 100, 1-[1-(4-Methylsulfonyloxybenzoyl)-4-piperidinyl]-3,4-dihydrocarbostyril] gave an IC50 of 900 nM. For the compound `O=C(c1ccc(OCC2CO2)cc1)N1CCC(N2C(=O)CCc3ccccc32)CC1` (stereo not drawn) [Example 101, 1-[1-(4-Glycidoxybenzoyl)-4-piperidinyl]-3,4-dihydrocarbostyril], the concentration for half-maximal inhibition (IC50) is 1600 nM. For the compound `CCOC(=O)CN(C)c1cc(OC)ccc1C(=O)N1CCC(N2C(=O)CCc3ccccc32)CC1` [Example 102, 1-{1-[4-Methoxy-2-(N-methyl-N-ethoxycarbonylmethylamino)benzoyl]-4-piperidinyl}-3,4-dihydrocarbostyril], inhibition was half-maximal at 1100 nM (IC50). Still for that read-out and setting: as for `COc1ccc(C(=O)N2CCC(N3C(=O)CCc4ccccc43)CC2)c(NC(=O)OCc2ccccc2)c1` [Example 103, 1-[1-(4-Methoxy-2-benzyloxycarbonylaminobenzoyl)-4-piperidinyl]-3,4-dihydrocarbostyril], the figure is 700 nM; as for `COc1ccc(C(=O)N2CCC(N3C(=O)CCc4ccccc43)CC2)c(NC(C)=O)c1` [Example 104, 1-[1-(4-Methoxy-2-acetylaminobenzoyl)-4-piperidinyl]-3,4-dihydrocarbostyril], 1000 nM.

In turn, `CNC(=O)CNc1cc(OC)ccc1C(=O)N1CCC(N2C(=O)CCc3ccccc32)CC1` [Example 105, 1-[1-(4-Methoxy-2-methylaminocarbonylmethylamino)-4-piperidinyl]-3,4-dihydrocarbostyril] showed an IC50 of 1200 nM. The same measure, in the same setting: as for `O=C(c1ccc(C(F)(F)F)cc1)N1CCC(N2C(=O)CCc3ccccc32)CC1` [Example 106, 1-[1-(4-Trifluoromethylbenzoyl)-4-piperidinyl]-3,4-dihydrocarbostyril], the figure is 700 nM. In turn, `CC(=O)c1ccc(C(=O)N2CCC(N3C(=O)CCc4ccccc43)CC2)cc1` [Example 107, 1-[1-(4-Acetylbenzoyl)-4-piperidinyl]-3,4-dihydrocarbostyril] gave an IC50 of 750 nM. For the compound `O=C(c1ccc(C=NO)cc1)N1CCC(N2C(=O)CCc3ccccc32)CC1` [Example 108, 1-[1-(4-Hydroxyiminomethylbenzoyl)-4-piperidinyl]-3,4-dihydrocarbostyril], the IC50 amounted to 1400 nM.

In the case of `COCc1ccc(C(=O)N2CCC(N3C(=O)CCc4ccccc43)CC2)cc1` [Example 109, 1-[1-(4-Methoxymethylbenzoyl)-4-piperidinyl]-3,4-dihydrocarbostyril], the IC50 was 750 nM. Compared with the last compound, the IC50 is about 1.9-fold lower. Same read-out and setting: with `C[Si](C)(C)c1ccc(C(=O)N2CCC(N3C(=O)CCc4ccccc43)CC2)cc1` [Example 110, 1-[1-(4-Trimethylsilylbenzoyl)-4-piperidinyl]-3,4-dihydrocarbostyril] the figure was 1300 nM; with `C=CCc1ccc(C(=O)N2CCC(N3C(=O)CCc4ccccc43)CC2)cc1` [Example 111, 1-[1-(4-Allylbenzoyl)-4-piperidinyl]-3,4-dihydrocarbostyril], 730 nM; with `O=C(c1ccc(C2CCCCC2)cc1)N1CCC(N2C(=O)CCc3ccccc32)CC1` [Example 112, 1-[1-(4-Cyclohexylbenzoyl)-4-piperidinyl]-3,4-dihydrocarbostyril], 970 nM. Same read-out and setting: with `O=C(c1ccc2c(c1)OCO2)N1CCC(N2C(=O)CCc3ccccc32)CC1` [Example 113, 1-[1-(3,4-Methylenedioxybenzoyl)-4-piperidinyl]-3,4-dihydrocarbostyril] the figure was 980 nM; with `CC(C)=CCCC(C)=CC(=O)N1CCC(N2C(=O)CCc3ccccc32)CC1` [Example 114, 1-[1-(2,6-Dimethyl-1,5-heptadiene-1-carbonyl)-4-piperidinyl]-3,4-dihydrocarbostyril], 1500 nM. In turn, `O=C(CC12CC3CC(CC(C3)C1)C2)N1CCC(N2C(=O)CCc3ccccc32)CC1` [Example 115] showed an IC50 of 700 nM. Compared with the last compound, the IC50 is about 2.1-fold lower. In turn, `O=C(c1ccc2ccccc2c1)N1CCC(N2C(=O)CCc3ccccc32)CC1` [Example 116, 1-[1-(2-Naphthylcarbonyl)-4-piperidinyl]-3,4-dihydrocarbostyril] returned an IC50 of 760 nM.

For the compound `O=C(c1cnc2ccccc2c1)N1CCC(N2C(=O)CCc3ccccc32)CC1` [Example 117, 1-[1-(3-quinolylcarbonyl)-4-piperidinyl]-3,4-dihydrocarbostyril], half-maximal inhibition (IC50) was put at 1500 nM. As for `COc1ccc(C(=O)N2CCC(N3C(=O)CCc4ccccc43)CC2)cc1[N+](=O)[O-]` [Example 119, 1-[1-(3-Nitro-4-methoxybenzoyl)-4-piperidinyl]-3,4-dihydrocarbostyril], it took 1400 nM to reach half-maximal inhibition (IC50).

As for `CCOc1ccc(C(=O)N2CCC(N3C(=O)CCc4cc(F)c(F)cc43)CC2)c(OC)c1` [Example 120, 6,7-Difluoro-1-[1-(2-methoxy-4-ethoxybenzoyl)-4-piperidinyl]-3,4-dihydrocarbostyril], it took 200 nM to reach half-maximal inhibition (IC50).

`CNC(=O)CCCOc1ccc(C(=O)N2CCC(N3C(=O)CCc4ccccc43)CC2)cc1` [Example 121, 1-{1-[4-(3-Methylaminocarbonylpropoxy)benzoyl]-4-piperidinyl}-3,4-dihydrocarbostyril] had an IC50 of 460 nM. `O=C(c1ccc(C=CCCO)cc1)N1CCC(N2C(=O)CCc3ccccc32)CC1` [Example 122, 1-{1-[4-(4-Hydroxy-1-butenyl)benzoyl]-4-piperidinyl}-3,4-dihydrocarbostyril] displayed an IC50 of 710 nM. The compound `O=C(c1ccc(CCCCO)cc1)N1CCC(N2C(=O)CCc3ccccc32)CC1` [Example 123, 1-{1-[4-(4-Hydroxybutyl)benzoyl]-4-piperidinyl}-3,4-dihydrocarbostyril] registered an IC50 of 350 nM. Same read-out and setting: with `CC(=O)OCCCCc1ccc(C(=O)N2CCC(N3C(=O)CCc4ccccc43)CC2)cc1` [Example 124, 1-{1-[4-(4-Acetoxybutyl)benzoyl]-4-piperidinyl}-3,4-dihydrocarbostyril] the figure was 320 nM. For the compound `O=C(c1ccc(OCCCCn2cccc2)cc1)N1CCC(N2C(=O)CCc3ccccc32)CC1` [Example 125, 1-[1-{4-[4-(1-pyrrolyl)butoxy]benzoyl}-4-piperidinyl]-3,4-dihydrocarbostyril], the half-maximal inhibitory concentration (IC50) came out at 590 nM. Regarding `CNc1ccc(C(=O)NCCCCOc2ccc(C(=O)N3CCC(N4C(=O)CCc5ccccc54)CC3)cc2)cc1` [Example 126, 1-[1-{4-[(4-Methylaminobenzoyl)aminobutoxy]-benzoyl}-4-piperidinyl]-3,4-dihydrocarbostyril], the IC50 stood at 360 nM. For the compound `CC[S+]([O-])CCCOc1ccc(C(=O)N2CCC(N3C(=O)CCc4ccccc43)CC2)cc1` (stereo not drawn) [Example 127, 1-{1-[4-(Ethylsulfinylpropoxy)benzoyl]-4-piperidinyl}-3,4-dihydrocarbostyril], half-maximal inhibition (IC50) required 610 nM. On to `O=C(c1ccc(OCCCCCCO)cc1)N1CCC(N2C(=O)CCc3ccccc32)CC1` [Example 128, 1-{1-[4-(6-Hydroxyhexyloxy)benzoyl]-4-piperidinyl}-3,4-dihydrocarbostyril], for which the half-inhibitory concentration (IC50) is 230 nM. The compound `NC(=O)OCCCCCOc1ccc(C(=O)N2CCC(N3C(=O)CCc4ccccc43)CC2)cc1` [Example 129, 1-{1-[4-(5-Carbamoyloxypentyloxy)benzoyl]-4-piperidinyl}-3,4-dihydrocarbostyril] registered an IC50 of 180 nM.

For `CC(=O)OCCCCCCOc1ccc(C(=O)N2CCC(N3C(=O)CCc4ccccc43)CC2)cc1` [Example 130, 1-{1-[4-(6-Acetoxyhexyloxy)benzoyl]-4-piperidinyl}-3,4-dihydrocarbostyril], the concentration for half-maximal inhibition (IC50) amounted to 390 nM. Against the preceding compound, the IC50 is about 2.2-fold higher.

`CN(C)CC(O)CCCCOc1ccc(C(=O)N2CCC(N3C(=O)CCc4ccccc43)CC2)cc1` (stereo not drawn) [Example 131, 1-{1-[4-(6-Dimethylamino-5-hydroxyhexyloxy)benzoyl]-4-piperidinyl}-3,4-dihydrocarbostyril] came in with an IC50 of 66 nM. As to `O=C(c1ccc(OCCCN2CCNCC2)cc1)N1CCC(N2C(=O)CCc3ccccc32)CC1` [Example 132, 1-[1-{4-[3-(1-piperazinyl)propoxy]benzoyl}-4-piperidinyl]-3,4-dihyrocarbostyril.dihydrochloride.trihydrate], the IC50 is 160 nM. This IC50 lies about 2.4-fold higher than the previous one. `O=C(c1ccc(OCCCN2CCN(Cc3ccccc3)CC2)cc1)N1CCC(N2C(=O)CCc3ccccc32)CC1` [Example 133, 1-[1-{4-[3-(4-Benzyl-1-piperazinyl)propoxy]benzoyl}-4-piperidinyl]-3,4-dihydrocarbostyril.dioxalate]: inhibition was half-maximal at 330 nM (IC50). With `CC(=O)N1CCN(CCCOc2ccc(C(=O)N3CCC(N4C(=O)CCc5ccccc54)CC3)cc2)CC1` [Example 134, 1-[1-{4-[3-(4-Acetyl-1-piperazinyl)propoxy]-benzoyl}-4-piperidinyl]-3,4-dihydrocarbostyril], the IC50 is 160 nM. For the compound `O=C(Nc1ccccc1)N1CCN(CCCOc2ccc(C(=O)N3CCC(N4C(=O)CCc5ccccc54)CC3)cc2)CC1` [Example 135, 1-[1-{4-[3-(4-Anilinocarbonyl-1-piperazinyl)propoxy]benzoyl}-4-piperidinyl]-3,4-dihydrocarbostyril], the half-inhibitory concentration (IC50) was found to be 200 nM. The IC50 values of the last two compounds are within 1.5-fold of each other. On the same count and under the same terms, with `CN1CCN(CCCOc2ccc(C(=O)N3CCC(N4C(=O)CCc5ccccc54)CC3)cc2)CC1` [Example 136, 1-[1-{4-[3-(4-Methyl-1-piperazinyl)propoxy]benzoyl}-4-piperidinyl]-3,4-dihydrocarbostyril.dioxalate] the figure was 180 nM; with `O=C(CN1CCN(CCCOc2ccc(C(=O)N3CCC(N4C(=O)CCc5ccccc54)CC3)cc2)CC1)c1ccccc1` [Example 137, 1-[1-{4-[3-(4-Benzoylmethyl-1-piperazinyl)propoxy]benzoyl}-4-piperidinyl]-3,4-dihydrocarbostyril.dioxalate], 120 nM. Consider `O=C(c1ccc(OCCCN2CCN(CC(O)c3ccccc3)CC2)cc1)N1CCC(N2C(=O)CCc3ccccc32)CC1` (stereo not drawn) [Example 138, 1-{1-[4-{3-[4-(2-Phenyl-2-hydroxyethyl)-1-piperazinyl]propoxy}benzoyl]-4-piperidinyl}-3,4-dihydrocarbostyril.dioxalate], for which the IC50 amounted to 240 nM. Against the preceding compound, the IC50 is about 2-fold higher.

The test is the same for the next values; noted with them: [H]3-Arg-vasopressin 2×10^-10 M, rat liver plasma membrane, 37° C., 10 minutes, pH 8.0.
Consider `COc1ccc(C(=O)N2CCC(N3C(=O)CCc4ccccc43)C(C)C2)c(OC)c1` (stereo not drawn) [Example 118, 1-[3-Methyl-1-(2,4-dimethoxycarbonyl)-4-piperidinyl]-3,4-dihydrocarbostyril], for which the IC50 stood at 260 nM. This counts as sub-micromolar.
